Consider 3 compounds from patent US11911386B2, “Methods of treating B-cell proliferative disorder” (BeiGene Switzerland GmbH, priority 2022, dated 2024).

Data set [1] is described as follows: Phase 1 DDI study: treatment-emergent adverse events. The following applies: N = 13. The format is in vivo, human. As to the method:
Safety was assessed by monitoring and recording of adverse events (AEs), serious adverse events (SAEs), clinical laboratory tests, physical examinations, and vital signs. […] A TEAE was defined as an AE that started during or after the first dose or started before the first dose and increased in severity after the first dose. AEs were classified based on MedDRA Version 24.0.
Safety and tolerability were assessed, when applicable, by incidence, severity, change from baseline values, and abnormal values for all relevant parameters such as AEs, laboratory parameters, vital signs, and physical examination.

The conditions of data set [2]: cited from earlier work.
Data set [3] has as its system CYP3A. The conditions noted are these: coadministration of rifabutin with midazolam; cited from earlier work.
In data set [4] the test system is panel of 370 kinases. Description: Kinome profiling at 100xIC50 (BTK) concentrations. The format is biochemical. The conditions noted are these: 100×IC50 (BTK) concentration.
Data set [5] is described as follows: RESONATE / RESONATE2 trials: ibrutinib effect (non-inferiority margin derivation). The format is in vivo, human.
For data set [6] the following is noted: cited from earlier work. The source holds these as a separate data set.
Where [7] appears, read: phase 3, relapsed/refractory CLL.

On to `CO[C@H]1/C=C/O[C@@]2(C)Oc3c(C)c(O)c4c(c3C2=O)C2=NC3(CCN(CC(C)C)CC3)NC2=C(NC(=O)/C(C)=C\C=C\[C@H](C)[C@H](O)[C@@H](C)[C@@H](O)[C@@H](C)[C@H](OC(C)=O)[C@@H]1C)C4=O` [rifabutin], for which, in data set [1], the “Chromaturia TEAE” value was 6 (46.2) n (%); the “Overall TEAEs” value was 6 (46.2) n (%); the “Renal and urinary disorders TEAE” value is given as 6 (46.2) n (%). Besides, the “Decrease of systemic levels after multiple doses (auto-induction)” value in data set [2] (in vivo) is on record as 38%. Further, in data set [2] (single oral dose of 300 mg), the “Mean t1/2 (standard deviation)” value was 45 (standard deviation, 17) hours and the Tmax is 2 to 4 h. The “Reduction in midazolam exposure” value in data set [3] is given as “≈ 3.2 fold”.
Regarding `C=CC(=O)N1CCC[C@@H](n2nc(-c3ccc(Oc4ccccc4)cc3)c3c(N)ncnc32)C1` [ibrutinib, 1-[(3R)-3-[4-amino-3-(4-phenoxyphenyl)-1H-pyrazolo[3,4-d]pyrimidin-1-yl]-1-piperidinyl]-2-propen-1-one], in data set [4], the Off-target kinases inhibited came out at 17 kinases. In data set [5], the “Pooled PFS HR, fixed-effect meta-analysis” value turned out to be 0.120. Also, the “AEs leading to treatment discontinuation” value in data set [6] (long-term follow-up, 132 patients) is listed as 13%.
`CC#CC(=O)N1CCC[C@H]1c1nc(-c2ccc(C(=O)Nc3ccccn3)cc2)c2c(N)nccn12` [acalabrutinib] had an Off-target kinases inhibited in data set [4] of 15 kinases. Also, in data set [6] (setting [7]), the “Arthralgia, any grade” value is given as 15.8%; the “Atrial fibrillation, any grade” value is reported as 9.0%; the Cough is given as 28.9%; the “Fatigue grade ≥3” value is 3.4%. Further, in data set [6] (setting [7]), the Headaches was 34.6%; the “Hypertension, any grade” value is recorded as 8.6%; the “Infections grade ≥3” value is 30.8%.
